Key:
[1] = tested on: lens capsule and hemidesmosomes; assay: Studies by the inventor with lysine solutions (lens capsule / hemidesmosomes); details: lysine solutions having a lower concentration
[2] = tested on: zonula fibers and posterior capsule of donor eyes; assay: Experiments on donor eyes; details: the corneas of which were used for cornea transfers, L-lysine in the concentration indicated above (0.5-3.5 wt.-%)
Description: (§1) The surgical result is therefore permanent; further procedures for treatment of possible capsule fibrosis are rarely or never necessary. The solution according to the invention can be used with every phacoemulsification, with or without lens implantation, to clean the posterior capsule. In this regard, the solution according to the invention can be produced from commercially available L-lysine. In particular, the solution can be present as a flushing solution.

lens capsule = assay: Surgical studies within the scope of extracapsular procedures; type: in vivo; details: L-lysine concentrations of up to 5%
Description: as §1
When performing the extracapsular operation, it has proven to be practical to apply 1 to 5 ml of the L-lysine according to the invention to the posterior capsule after removal of the cloudy lens core and the subcapsular cortex layer (Cortex lentis), using an anterior-chamber cannula. After a sufficient period of action, the solution is suctioned away and rinsed off. In this regard, the period of action is primarily dependent on the concentration of the solution. For a solution with a concentration of 2 wt.-%, it lies between 30 s and 5 min, preferably at approximately 1 min. The period of action should not amount to more than 5 min, preferably not more than 3 min.

For `NCCCC[C@H](N)C(=O)O` [L-lysine], the “damage to the lens capsule” value [1] was “damage to the lens capsule does not occur”, the “digestion of the hemidesmosomes” value [1] was “digestion of the hemidesmosomes still takes place to a sufficient extent” and the “attack on zonula fibers and posterior capsule” value [2] was “neither the zonula fibers nor the posterior capsule are attacked”. For the same compound, the “integrity of lens capsule during and after the procedure” value (lens capsule) was “the lens capsule remained intact during and after the procedure” and the “prevention of capsule fibrosis after the procedures” value (lens capsule) was “it was possible to prevent capsule fibrosis after the procedures”.

Source: US10695311B2, “Solution for ophthalmology” (priority 2016, dated 2020)
